What follows are compounds tested against T1, human CCR10 (Homo sapiens, UniProt P46092) (assay: CCR10 antagonistic effect: calcium assay of human CCR10 (CTACK-induced increase of intracellular calcium in hCCR10G16 cells)). Conditions: at a concentration of not more than 1000 nmol/L; human CCR10-expressing hCCR10G16 cells, 300 nmol/L CTACK added; read-out: inhibition of increase in the calcium ion concentration.
T1 construct: expressed in transfected cells; host or cells: KJMGER8 cells (Namalwa cell-derived line), beta-estradiol-induced; hCCR10G16 cells
T1 sequence (P46092 1-362): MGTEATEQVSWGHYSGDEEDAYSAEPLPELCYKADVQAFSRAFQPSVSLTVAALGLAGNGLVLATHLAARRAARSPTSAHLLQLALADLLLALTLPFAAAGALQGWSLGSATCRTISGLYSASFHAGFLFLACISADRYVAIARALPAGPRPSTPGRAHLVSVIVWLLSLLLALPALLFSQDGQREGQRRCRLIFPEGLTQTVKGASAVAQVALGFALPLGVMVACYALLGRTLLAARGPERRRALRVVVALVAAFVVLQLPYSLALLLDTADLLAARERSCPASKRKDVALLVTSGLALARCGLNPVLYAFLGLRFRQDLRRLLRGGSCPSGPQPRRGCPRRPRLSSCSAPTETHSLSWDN
Format: cell-based
How it was run: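 Inhibition of CTACK-evoked calcium flux (max minus min Fluo-3 fluorescence over ~5 min, FDSS) was calculated against control in β-estradiol-induced human CCR10/Gα16 KJMGER8 cells, after 30 min compound preincubation at 37 °C; CTACK added from a 300 nmol/L solution.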

Compound	inhibition at up to 1 µM [%]
Cc1c(S(=O)(=O)Nc2ccon2)ncc(C(=O)N2CCC(c3ccc(F)cc3)CC2)c1Nc1ccc(Cl)c(Cl)c1 [Compound 279, 4-(3,4-dichlorophenylamino)-5-[4-(4-fluorophenyl)piperidine-1-carbonyl]-N-(isoxazol-3-yl)-3-methylpyridine-2-sulfonamide]	≥ 50
Cc1c(S(=O)(=O)Nc2ccon2)ncc(C(=O)N2CCC(c3ccc(F)cc3)CC2)c1Nc1ccc(Cl)cc1Cl [Compound 280, 4-(2,4-dichlorophenylamino)-5-[4-(4-fluorophenyl)piperidine-1-carbonyl]-N-(isoxazol-3-yl)-3-methylpyridine-2-sulfonamide]	≥ 50
Cc1c(S(N)(=O)=O)ncc(C(=O)N2CC(c3ccc(F)cc3)C2)c1Nc1cccc(Cl)c1 [Compound 285, 4-(3-chlorophenylamino)-5-[3-(4-fluorophenyl)azetidine-1-carbonyl]-3-methylpyridine-2-sulfonamide]	≥ 50
Cc1ccccc1Nc1c(C(=O)N2CC(c3ccc(F)cc3)C2)cnc(S(=O)(=O)Nc2ccon2)c1C [Compound 292, 5-[3-(4-fluorophenyl)azetidine-1-carbonyl]-N-(isoxazol-3-yl)-3-methyl-4-(o-tolylamino)pyridine-2-sulfonamide]	≥ 50
CCc1c(S(=O)(=O)Nc2ccon2)ncc(C(=O)N2CCC(c3ccc(F)cc3)CC2)c1Nc1cccc(F)c1C [Compound 294, 3-ethyl-4-(3-fluoro-2-methylphenylamino)-5-[4-(4-fluorophenyl)piperidine-1-carbonyl]-N-(isoxazol-3-yl)pyridine-2-sulfonamide]	≥ 50
NS(=O)(=O)c1ncc(C(=O)N2CCC3(CC2)COc2ccccc23)c(NC2(c3ccccc3)CC2)c1Cl [Compound 297, 3-chloro-4-(1-phenylcyclopropylamino)-5-(2H-spiro[benzofuran-3,4′-piperidin]-1′-ylcarbonyl)pyridine-2-sulfonamide]	≥ 50
Cc1c(S(=O)(=O)Nc2ccon2)ncc(C(=O)N2CCC(c3ccc(F)cc3)CC2)c1Nc1ccc(C#N)cc1 [Compound 298, 4-(4-cyanophenylamino)-5-[4-(4-fluorophenyl)piperidine-1-carbonyl]-N-(isoxazol-3-yl)-3-methylpyridine-2-sulfonamide]	≥ 50
Cc1cc(NS(=O)(=O)c2ncc(C(=O)N3CCC(c4ccc(F)cc4)CC3)c(Nc3ccc(F)cc3)c2C)sn1 [Compound 299, 5-[4-(4-fluorophenyl)piperidine-1-carbonyl]-4-(4-fluorophenylamino)-3-methyl-N-(3-methylisothiazol-5-yl)pyridine-2-sulfonamide]	≥ 50
Cc1ccc(Nc2c(C(=O)N3CCC(c4ccc(F)cc4)CC3)cnc(S(=O)(=O)Nc3cc(C)ns3)c2C)cc1 [Compound 300, 5-[4-(4-fluorophenyl)piperidine-1-carbonyl]-3-methyl-N-(3-methylisothiazol-5-yl)-4-(p-tolylamino)pyridine-2-sulfonamide]	≥ 50
Cc1cc(NS(=O)(=O)c2ncc(C(=O)N3CCC(c4ccc(F)cc4)CC3)c(Nc3ccc(F)c(F)c3)c2C)sn1 [Compound 301, 4-(3,4-difluorophenylamino)-5-[4-(4-fluorophenyl)piperidine-1-carbonyl]-3-methyl-N-(3-methylisothiazol-5-yl)pyridine-2-sulfonamide]	≥ 50
CC(=O)c1ccc(C)c(NC2=CC=NC(S(N)(=O)=O)C2(Cl)C(=O)N2CCC(c3ccc(F)cc3)CC2)c1 (centres unmarked) [Compound 303, 4-(5-acetyl-2-methylphenylamino)-3-chloro-3-[4-(4-fluorophenyl)piperidine-1-carbonyl]pyridine-2-sulfonamide]	≥ 50
COC1(c2ccc(F)cc2)CCN(C(=O)c2cnc(S(N)(=O)=O)c(C)c2Nc2ccccc2C)CC1 [Compound 304, 5-[4-(4-fluorophenyl)-4-methoxypiperidine-1-carbonyl]-3-methyl-4-(o-tolylamino)pyridine-2-sulfonamide]	≥ 50
Cc1ccccc1Nc1c(C(=O)N2CCC3(CC2)COc2ccccc23)cnc(S(N)(=O)=O)c1C [Compound 305, 3-methyl-5-(2H-spiro[benzofuran-3,4′-piperidin]-1′-ylcarbonyl)-4-(o-tolylamino)pyridine-2-sulfonamide]	≥ 50
COC1(c2ccc(F)cc2)CCN(C(=O)c2cnc(S(N)(=O)=O)c(Cl)c2Nc2cccc(Cl)c2)CC1 [Compound 306, 3-chloro-4-(3-chlorophenylamino)-5-[4-(4-fluorophenyl)-4-methoxypiperidine-1-carbonyl]pyridine-2-sulfonamide]	≥ 50
NS(=O)(=O)c1ncc(C(=O)N2CCC3(CC2)COc2ccccc23)c(Nc2cccc(Cl)c2)c1Cl [Compound 307, 3-chloro-4-(3-chlorophenylamino)-5-(2H-spiro[benzofuran-3,4′-piperidine]-1′-ylcarbonyl)pyridine-2-sulfonamide]	≥ 50

More lines, now with the values ahead:

inhibition at up to 1 µM [%]	Compound
≥ 50	NS(=O)(=O)c1ncc(C(=O)N2CCN(c3ccc(F)cc3)C(=O)C2)c(NC2(c3ccccc3)CC2)c1Cl [Compound 278, 3-chloro-5-[4-(4-fluorophenyl)-3-oxopiperazine-1-carbonyl]-4-(1-phenylcyclopropylamino)pyridine-2-sulfonamide]
≥ 50	Cc1c(S(=O)(=O)Nc2ccon2)ncc(C(=O)N2CCC(c3ccc(F)cc3)CC2)c1Nc1cc(Cl)ccc1Cl [Compound 281, 4-(2,5-dichlorophenylamino)-5-[4-(4-fluorophenyl)piperidine-1-carbonyl]-N-(isoxazol-3-yl)-3-methylpyridine-2-sulfonamide]
≥ 50	CN(Nc1c(C(=O)N2CCC(c3ccc(F)cc3)CC2)cnc(S(N)(=O)=O)c1Cl)c1ccccc1 [Compound 282, 3-chloro-5-[4-(4-fluorophenyl)piperidine-1-carbonyl]-4-(2-methyl-2-phenylhydrazinyl)pyridine-2-sulfonamide]
≥ 50	NS(=O)(=O)c1ncc(C(=O)N2CC(c3ccc(F)cc3)C2)c(Nc2cccc(Cl)c2)c1Cl [Compound 283, 3-chloro-4-(3-chlorophenylamino)-5-[3-(4-fluorophenyl)azetidine-1-carbonyl]pyridine-2-sulfonamide]
≥ 50	Cc1c(S(N)(=O)=O)ncc(C(=O)N2CC(c3ccc(F)cc3)C2)c1NCc1ccccc1 [Compound 284, 4-(benzylamino)-5-[3-(4-fluorophenyl)azetidine-1-carbonyl]-3-methylpyridine-2-sulfonamide]
≥ 50	CCc1c(S(=O)(=O)Nc2ccon2)ncc(C(=O)N2CCC(c3ccc(F)cc3)CC2)c1Nc1ccccc1C [Compound 287, 3-ethyl-5-[4-(4-fluorophenyl)piperidine-1-carbonyl]-N-(isoxazol-3-yl)-4-(o-tolylamino)pyridine-2-sulfonamide]
≥ 50	N#Cc1ccc(C#N)c(Nc2c(C(=O)N3CCC(c4ccc(F)cc4)CC3)cnc(S(N)(=O)=O)c2Cl)c1 [Compound 288, 3-chloro-4-(2,5-dicyanophenylamino)-5-[4-(4-fluorophenyl)piperidine-1-carbonyl]pyridine-2-sulfonamide]
≥ 50	Cc1ccc(Oc2c(C(=O)N3CCC(c4ccc(F)cc4)CC3)cnc(S(N)(=O)=O)c2C)cc1 [Compound 289, 5-[4-(4-fluorophenyl)piperidine-1-carbonyl]-3-methyl-4-(p-tolyloxy)pyridine-2-sulfonamide]
≥ 50	N#Cc1ccc(Cl)cc1Nc1c(C(=O)N2CCC(c3ccc(F)cc3)CC2)cnc(S(N)(=O)=O)c1Cl [Compound 290, 3-chloro-4-(5-chloro-2-cyanophenylamino)-5-[4-(4-fluorophenyl)piperidine-1-carbonyl]pyridine-2-sulfonamide]
≥ 50	COC1(c2ccc(F)cc2)CCN(C(=O)c2cnc(S(N)(=O)=O)c(Cl)c2NC2(c3ccccc3)CC2)CC1 [Compound 295, 3-chloro-5-[4-(4-fluorophenyl)-4-methoxypiperidine-1-carbonyl]-4-(1-phenylcyclopropylamino)pyridine-2-sulfonamide]
≥ 50	NS(=O)(=O)c1ncc(C(=O)N2CCC(c3ccc(F)cc3)CC2)c(Nc2ccc(Cl)cc2)c1Cl [Compound 302, 3-chloro-4-(4-chlorophenylamino)-5-[4-(4-fluorophenyl)piperidine-1-carbonyl]pyridine-2-sulfonamide]
≥ 50	NS(=O)(=O)c1ncc(C(=O)N2CCC(c3ccccc3)CC2)c(Nc2cccc(Cl)c2)c1Cl [Compound 308, 3-chloro-4-(3-chlorophenylamino)-5-(4-phenylpiperidine-1-carbonyl)pyridine-2-sulfonamide]
≥ 50	Cc1ccc(Cl)cc1Nc1c(C(=O)N2CCC(c3ccccc3)CC2)cnc(S(N)(=O)=O)c1Cl [Compound 309, 3-chloro-4-(5-chloro-2-methylphenylamino)-5-(4-phenylpiperidine-1-carbonyl)pyridine-2-sulfonamide]
≥ 50	CCc1ccc(Nc2c(C(=O)N3CCC(c4ccc(F)cc4)CC3)cnc(S(N)(=O)=O)c2Cl)cc1 [Compound 310, 3-chloro-4-(4-ethylphenylamino)-5-[4-(4-fluorophenyl)piperidine-1-carbonyl]pyridine-2-sulfonamide]
